# Data published in ChEMBL document CHEMBL5241078, “Emerging trends of receptor-mediated tumor targeting peptides: A review with perspective from molecular imaging modalities” (Eur J Med Chem, 2021).
# Biological target: T1, Gastrin/cholecystokinin type B receptor (Homo sapiens, UniProt P32239)
# T1 sequence (P32239 whole entry): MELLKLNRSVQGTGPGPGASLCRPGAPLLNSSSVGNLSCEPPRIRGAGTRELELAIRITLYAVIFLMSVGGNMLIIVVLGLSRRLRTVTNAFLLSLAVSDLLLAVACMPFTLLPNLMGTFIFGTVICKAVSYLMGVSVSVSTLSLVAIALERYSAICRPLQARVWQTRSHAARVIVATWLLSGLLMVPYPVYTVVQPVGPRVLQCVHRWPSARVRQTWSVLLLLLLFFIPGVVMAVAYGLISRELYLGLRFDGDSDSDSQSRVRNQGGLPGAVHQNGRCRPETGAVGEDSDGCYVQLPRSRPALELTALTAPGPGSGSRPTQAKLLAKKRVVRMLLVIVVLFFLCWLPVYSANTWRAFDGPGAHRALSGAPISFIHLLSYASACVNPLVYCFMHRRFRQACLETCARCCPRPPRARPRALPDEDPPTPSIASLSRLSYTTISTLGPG
# Test: Binding affinity to human CCK2R expressed in human A-431 cells
# Assay type: cell-based
row,IC50 [nM],Structure (SMILES)
1,2.54,CSCCC[C@H](NC(=O)[C@H](Cc1c[nH]c2ccccc12)NC(=O)[C@H]1CCCCNC(=O)[C@H](NC(=O)c2ccc(NN)nc2)CCC(=O)N[C@@H](C)C(=O)N[C@@H](Cc2ccc(O)cc2)C(=O)N1)C(=O)N[C@@H](CC(=O)O)C(=O)N[C@@H](Cc1ccccc1)C(N)=O
2,3.23,CCCCC[C@H](NC(=O)[C@H](Cc1c[nH]c2ccccc12)NC(=O)[C@H]1CCCCNC(=O)[C@H](NC(=O)c2ccc(NN)nc2)CCC(=O)N[C@@H](C)C(=O)N[C@@H](Cc2ccc(O)cc2)C(=O)N1)C(=O)N[C@@H](CC(=O)O)C(=O)N[C@@H](Cc1ccccc1)C(N)=O
